Experimental findings from patent publication US20030134901A1, “Lipoxin compounds and their use in treating cell proliferative disorders” (priority 1993, published 2003) are described below.

One series concerns PMA-treated HL-60 cells. Put plainly: Lipoxin metabolism / bio-half-life assay with phorbol ester-treated HL-60 cells. Type of series: in vitro ADME, human. The protocol: HL-60 cells were purchased from American Type Culture Collection (Rockville, Md.), and other cell culture reagents were from GIBCO (Grand Island, N.Y.). Versene (EDTA) was from Whittaker Bioproducts (Walkersville, Md.). Synthetic 11,12-acetylenic LXA4 methyl ester and LXs were from Cascade Biochemical (Reading, U.K.). 15(S)-15-m-PGE1, PGE1, and 5-HETE were from Cayman Chemical Co. (Ann Arbor, Mich.). [11,12-^3H]LXA4 was prepared from 11,12-acetylenic LXA4 using Lindlar catalyst as a custom tritiation (NET-259, lot 0 2793-275, New England Nuclear, Boston, Mass.). Tritiated products were isolated using RP-HPLC (Fiore et al. (1992) J. Biol. Chem. 267:16168; Serhan, C. N. (1990) Meth. Enzymol. 187:167). Methoxyamine and NAD were from Sigma Chemical Company (St. Louis, Mo.). Manganese dioxide and Adams reagent were from Aldrich Chemical Co. (Milwaukee, Wis.).
(§1) Human PMN were obtained from healthy volunteers by gradient centrifugation of heparinized fresh venous blood (Böyum, A. ([…]) Scand. J. Clin. Lab. Invest. 21:77). HL-60 cells were seeded in RPMI supplemented with penicillin (100 U/ml), streptomycin (100 μ/ml), fetal bovine serum (10%) (Hyclone, Logan, Utah) and incubated (37° C. with 5% CO2 atmosphere) in plastic 250 ml flasks. Individual flasks containing […] HL-60 cells/ml were incubated in the presence or absence of phorbol 12-myristate 13-acetate (PMA) (10 or 16 nM, 24-27 h) and adherence was monitored for induction of macrophage-like phenotype as in Collins, S. J. (1987) Blood 70:1233. […]
(§2) Incubations with eicosanoids were stopped with cold methanol containing either PGB2 or 5-HETE as internal standards (5-HETE was used when 15-oxo-ETE was quantified). […] Formation of 15-oxo-ETE by 100,000 g supernatants (cf. Agins, A. P. et al. (1987) Agents Actions 21:397; Xun, C-Q. et al.(1991) Biochem. J. 279:553; and Sok, D-E. et al. (1988) Biochem. Biophys. Res. Commun. 156:524) was quantified after RP-HPLC using an ODS column (4.6 mm×25 cm) eluted with methanol/H2O/acetic acid (70:30:0.01, v/v/v) monitored at 280 nm with a flow rate of 1 ml/min. […] On-line spectra were recorded using a diode array detector (Hewlett-Packard 1040M series II) equipped with HPLC^3D ChemStation software (DOS series). […]
The “bio-half-life” of compounds 1-8 was assessed using phorbol ester-treated human promyelocytic leukemia (HL-60) cells as described in Example 2. […]

Another series has as its target T1, 15-PGDH (Homo sapiens, UniProt P15428).
T1 construct: 100,000 g supernatants prepared from PMA-treated HL-60 cells converted 15-HETE to 15-oxo-ETE; endogenous in cells; host or cells: HL-60 cells treated with PMA (16 nM, 24-72 h); freeze-thaw lysate, 100,000 g supernatant
T1 sequence (P15428 1-266): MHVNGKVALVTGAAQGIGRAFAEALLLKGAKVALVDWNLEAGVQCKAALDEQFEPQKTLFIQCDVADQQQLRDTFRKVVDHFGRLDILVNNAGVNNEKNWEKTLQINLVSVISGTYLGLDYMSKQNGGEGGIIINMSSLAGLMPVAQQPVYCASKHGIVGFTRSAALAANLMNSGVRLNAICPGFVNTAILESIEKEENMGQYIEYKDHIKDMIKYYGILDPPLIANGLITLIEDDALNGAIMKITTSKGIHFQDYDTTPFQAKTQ
Put plainly: 15-HETE to 15-oxo-ETE dehydrogenase activity of 100,000 g supernatants of PMA-treated HL-60 cells. The class given is biochemical. The protocol: as §1, §2

For orientation: Ki means the equilibrium dissociation constant of an inhibitor or competing ligand from its target. As for `CCCCC[C@H](O)/C=C/C=C\C=C\C=C\[C@@H](O)[C@@H](O)CCCC(=O)O` [LXA4, (5S, 6R, 15S)-trihydroxy-7E, 9E, 11Z, 13E-eicosatetraenoic acid], the LXA4 metabolized in the series with PMA-treated HL-60 cells (PMA-treated HL-60 cells, within the first 60 s of exposure) is greater than 70%. Besides, in the series on PMA-treated HL-60 cells (within five minutes of addition to the cell incubation), the “LXA4 converted” value is reported as “more than 95%”. Further, the Ki on 15-PGDH (Lineweaver-Burke plots, S.E.M., n=6, read-out: Ki, competition for catalysis of 15-HETE) is 8.2 ± 2.6 µM. In addition, the “block of 15-oxo-ETE formation” value at 15-PGDH (equimolar concentrations of LXA4 and 15-HETE) is recorded as “≈ 50%”.
